Assay results published in PMC5000766, “Inhibitory Effect of 2,3,5,6-Tetrafluoro-4-[4-(aryl)-1H-1,2,3-triazol-1-yl]benzenesulfonamide Derivatives on HIV Reverse Transcriptase Associated RNase H Activities” (International Journal of Molecular Sciences, 2016).

Assays:
human MT-4 cells = assay: Cellular cytotoxicity in MT-4 cells; conditions: preliminary finding
[1] = biological target: T1, HIV-1 RT-associated RNase H (Human immunodeficiency virus type 1 group M subtype B, UniProt P04585); assay: HIV-1 RNase H polymerase-independent cleavage assay; format: biochemical; conditions: compound concentration required to inhibit the HIV-1 RNase H activity by 50%; recombinant HIV-1 RT
T1 construct: The recombinant HIV-1 RT protein; His tag; made in house; host or cells: E. coli strain M15

Structure (SMILES)	melting point [°C]	cellular cytotoxicity (human MT-4 cells) [µM]	IC50 [1] [µM]
NS(=O)(=O)c1c(F)c(F)c(-n2cc(CO)nn2)c(F)c1F [Compound 10b]	133 to 134		
CCCCCc1ccc(-c2cn(-c3c(F)c(F)c(S(N)(=O)=O)c(F)c3F)nn2)cc1 [Compound 10d]	197 to 198	> 7	
CCOC(=O)C(=O)CC(=O)/C=C/c1cccn1Cc1ccccc1Cl [RDS1759, reference compound]			7 ± 1.5
NS(=O)(=O)c1ccc(-n2cc(CO)nn2)cc1 [Compound 9b]	195 to 197		> 100
CCCCCc1ccc(-c2cn(-c3ccc(S(N)(=O)=O)cc3)nn2)cc1 [Compound 9d]	253 to 256		
NCc1cn(-c2ccc(S(N)(=O)=O)cc2)nn1 [Compound 9a]			> 100
NS(=O)(=O)c1ccc(-n2cc(-c3ccccc3)nn2)cc1 [Compound 9c]	260 to 261		> 100
